Here are results for ten compounds from paper PMC10934055, “α-Glucosidase Inhibitory Phytochemical Components of Chinese Endemic Plant Whitfordiodendron filipes var. tomentosum” (Plants, 2024).

Like-named read-outs stand apart in the source and are kept apart here.

Experiment [1] has as its target T1, α-Glucosidase (Saccharomyces cerevisiae, UniProt P53341).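 Further: yeast α-glucosidase premixed with inhibitor in phosphate buffer for 15 min at 37 °C, then a further 15 min reaction with p-NPG substrate.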
T1 construct: purchased Sigma (Sigma-Aldrich) G5003
Kind of experiment: biochemical. The conditions noted are these: for inhibition at 2 µg/mL / inhibition at 4 µg/mL / inhibition at 6 µg/mL / inhibition at 8 µg/mL / inhibition at 10 µg/mL: read-out: α-glucosidase inhibition rate.

In experiment [2] the target is α-glucosidase. The conditions noted are these: read-out: IC50 (α-glucosidase inhibitory activity), cited from earlier work.
Setting [3] is: read-out: IC50 (α-glucosidase inhibitory bioassay), baker's yeast α-glucosidase, p-NPG, pH 6.86, 37 °C.

T1 sequence (P53341 whole entry): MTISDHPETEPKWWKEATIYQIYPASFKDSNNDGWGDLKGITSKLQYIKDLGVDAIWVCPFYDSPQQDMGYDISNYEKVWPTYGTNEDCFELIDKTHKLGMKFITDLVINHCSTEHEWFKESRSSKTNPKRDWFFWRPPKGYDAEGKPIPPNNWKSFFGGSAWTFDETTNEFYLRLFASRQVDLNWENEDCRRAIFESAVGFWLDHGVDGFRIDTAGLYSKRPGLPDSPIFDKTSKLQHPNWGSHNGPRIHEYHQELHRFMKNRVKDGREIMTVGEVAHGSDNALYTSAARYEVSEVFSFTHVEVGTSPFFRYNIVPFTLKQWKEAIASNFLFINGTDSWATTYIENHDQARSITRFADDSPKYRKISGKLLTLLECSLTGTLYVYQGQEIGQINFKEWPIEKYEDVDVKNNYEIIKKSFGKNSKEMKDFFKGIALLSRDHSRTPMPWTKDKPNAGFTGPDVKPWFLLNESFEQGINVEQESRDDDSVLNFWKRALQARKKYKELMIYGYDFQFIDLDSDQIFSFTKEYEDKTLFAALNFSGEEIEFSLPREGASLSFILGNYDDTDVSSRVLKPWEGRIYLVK

For `CCC(CC[C@@H](C)[C@H]1CC[C@H]2[C@@H]3CCC4=CC(=O)CC[C@]4(C)[C@H]3CC[C@]12C)C(C)C` (stereo partly drawn) [Compound 9, (20R)-24-ethylcholest-4-en-3-one], the concentration for half-maximal inhibition (IC50) on α-Glucosidase [1] (setting [3]) was < 100 µM. In addition, on α-Glucosidase [1], the inhibition at 2 µg/mL was determined as 6.1%, the inhibition at 4 µg/mL is 8.3%, the inhibition at 6 µg/mL was found to be 12.2% and the inhibition at 8 µg/mL was 15.6%. In addition, the inhibition at 10 µg/mL at α-Glucosidase [1] is 17.5%.

Turning to `CC[C@H](/C=C/[C@@H](C)[C@H]1CC[C@H]2[C@@H]3CC=C4C[C@@H](O)CC[C@]4(C)[C@H]3CC[C@]12C)C(C)C` [Compound 10, stigmasterol], the IC50 at α-Glucosidase [1] (setting [3]) is < 100 µM. Moreover, on α-Glucosidase [1], the inhibition at 2 µg/mL came out at 2.4%, the inhibition at 4 µg/mL turned out to be 4.3%, the inhibition at 6 µg/mL turned out to be 7.1% and the inhibition at 8 µg/mL turned out to be 9.6%. Further, the inhibition at 10 µg/mL at α-Glucosidase [1] came to 10.1%.

For `C=C(C)[C@@H]1CC[C@]2(C(=O)O)CC[C@]3(C)[C@H](CC[C@@H]4[C@@]5(C)CCC(=O)C(C)(C)[C@@H]5CC[C@]43C)[C@@H]12` [Compound 6, betulonic acid], on α-Glucosidase [1], half-maximal inhibition (IC50) required 17.2 ± 0.27 µM and the “α-glucosidase inhibitory activity (judgement in words)” value (shortened to “α-glucosidase inhibitory activity”) is given as “significant inhibitory activities”. In addition, the inhibition at 2 µg/mL on α-Glucosidase [1] (concentration 2.0 μg·mL-1) is 10.1%. The inhibition at 4 µg/mL at α-Glucosidase [1] (concentration 4.0 μg·mL-1) is 24.3%. On α-Glucosidase [1] (concentration 6.0 μg·mL-1), the inhibition at 6 µg/mL turned out to be 38.2%. The inhibition at 8 µg/mL at α-Glucosidase [1] (concentration 8.0 μg·mL-1) came to 51.7%. For the same compound, at α-Glucosidase [1] (concentration 10.0 μg·mL-1), the inhibition at 10 µg/mL is 60.5%. In addition, the IC50 on α-glucosidase [2] (compound isolated from Buddleja saligna) was 60.1 µM.

As to `CC(=O)O[C@H]1CC[C@]2(C)[C@H]3CC=C4[C@@H]5CC(C)(C)CC[C@]5(C(=O)O)CC[C@@]4(C)[C@]3(C)CC[C@H]2C1(C)C` [Compound 1, 3-acetyloleanolic acid], at α-Glucosidase [1], the “α-glucosidase inhibitory activity” value is reported as “significant inhibitory activities”, the inhibition at 2 µg/mL came out at 10.1%, the inhibition at 4 µg/mL is 24.3% and the inhibition at 6 µg/mL was found to be 38.2%. On α-Glucosidase [1], the inhibition at 8 µg/mL came to 48.3% and the inhibition at 10 µg/mL worked out at 56.5%. Further, at α-Glucosidase [1] (baker's yeast α-glucosidase, p-NPG, pH 6.86, 37 °C, read-out: IC50 (α-glucosidase inhibitory bioassay)), the IC50 turned out to be 16.8 ± 0.23 µM. Further, the IC50 at α-glucosidase [2] (compounds isolated from Coffea canephora) was 146.9 ± 1.2 µM.

As for `CC(C)(O)[C@@H]1CC[C@]2(C)CC[C@]3(C)[C@H](CC[C@@H]4[C@@]5(C)CCC(=O)C(C)(C)[C@@H]5CC[C@]43C)[C@@H]12` [Compound 5, 20-hydroxy-lupan-3-one], the “α-glucosidase inhibitory activity” value on α-Glucosidase [1] was “inactive”. The inhibition at 2 µg/mL on α-Glucosidase [1] (concentration 2.0 μg·mL-1) stood at 7.2%. Further, the inhibition at 4 µg/mL on α-Glucosidase [1] (concentration 4.0 μg·mL-1) was determined as 9.3%. At α-Glucosidase [1] (concentration 6.0 μg·mL-1), the inhibition at 6 µg/mL came out at 11%. The inhibition at 8 µg/mL at α-Glucosidase [1] (concentration 8.0 μg·mL-1) is 13.4%. Also, the inhibition at 10 µg/mL at α-Glucosidase [1] (concentration 10.0 μg·mL-1) was found to be 15.8%. Moreover, on α-Glucosidase [1] (setting [3]), the IC50 is < 100 µM.

As for `CC(=O)O[C@H]1CC[C@]2(C)[C@H]3CC[C@@H]4[C@@H]([C@@](C)(O)CCC=C(C)C)CC[C@@]4(C)[C@]3(C)CC[C@H]2C1(C)C` [Compound 8, dammar-24-ene-3β-acetoxy-20S-ol], on α-Glucosidase [1] (concentration 2.0 μg·mL-1), the inhibition at 2 µg/mL came to 3.7%. Further, the inhibition at 4 µg/mL at α-Glucosidase [1] (concentration 4.0 μg·mL-1) came to 6.2%. The inhibition at 6 µg/mL on α-Glucosidase [1] (concentration 6.0 μg·mL-1) was found to be 8.1%. At α-Glucosidase [1] (concentration 8.0 μg·mL-1), the inhibition at 8 µg/mL was 10.2%. Moreover, the inhibition at 10 µg/mL at α-Glucosidase [1] (concentration 10.0 μg·mL-1) is 11.1%. In addition, the half-inhibitory concentration (IC50) on α-Glucosidase [1] (setting [3]) was < 100 µM.

For the compound `CC(C)(O)[C@@H]1CC[C@]2(C)CC[C@]3(C)[C@H](CC[C@@H]4[C@@]5(C)CC[C@H](O)C(C)(C)[C@@H]5CC[C@]43C)[C@@H]12` [Compound 3, monogynol A], the “α-glucosidase inhibitory activity” value on α-Glucosidase [1] was “inactive”. On α-Glucosidase [1] (concentration 2.0 μg·mL-1), the inhibition at 2 µg/mL was determined as 2.2%. The inhibition at 4 µg/mL on α-Glucosidase [1] (concentration 4.0 μg·mL-1) came out at 3.1%. For the same compound, the inhibition at 6 µg/mL at α-Glucosidase [1] (concentration 6.0 μg·mL-1) came to 3.4%. Besides, the inhibition at 8 µg/mL at α-Glucosidase [1] (concentration 8.0 μg·mL-1) is 3.4%. Also, the inhibition at 10 µg/mL on α-Glucosidase [1] (concentration 10.0 μg·mL-1) is 4.3%.

On to `CC1(C)CC[C@]2(C(=O)O)CC[C@]3(C)C(=CC[C@@H]4[C@@]5(C)CC[C@H](O)C(C)(C)[C@@H]5CC[C@]43C)[C@@H]2C1` [Compound 2, oleanolic acid], for which, at α-Glucosidase [1], the “α-glucosidase inhibitory activity” value is recorded as “significant inhibitory activities”, the inhibition at 4 µg/mL was 27.8%, the inhibition at 6 µg/mL amounted to 39.9% and the inhibition at 10 µg/mL is 61.5%.

As to `C=C(C)[C@@H]1CC[C@]2(C)CC[C@]3(C)[C@H](CC[C@@H]4[C@@]5(C)CC[C@H](O)C(C)(C)[C@@H]5CC[C@]43C)[C@@H]12` [Compound 4, lupeol], the IC50 against α-Glucosidase [1] was 19.2 ± 0.17 µM; on α-glucosidase [2] (compound isolated from Sabia parviflora), 452 ± 5.3 µM. Moreover, the “α-glucosidase inhibitory activity” value on α-Glucosidase [1] is recorded as “significant inhibitory activities”. Also, the inhibition at 2 µg/mL at α-Glucosidase [1] (concentration 2.0 μg·mL-1) came to 12.5%. Moreover, the inhibition at 4 µg/mL on α-Glucosidase [1] (concentration 4.0 μg·mL-1) was 25.1%. For the same compound, the inhibition at 6 µg/mL on α-Glucosidase [1] (concentration 6.0 μg·mL-1) came out at 38.6%. The inhibition at 8 µg/mL at α-Glucosidase [1] (concentration 8.0 μg·mL-1) was found to be 49.2%. Also, the inhibition at 10 µg/mL at α-Glucosidase [1] (concentration 10.0 μg·mL-1) came to 58.4%.

With `C[C@H]1O[C@H](O[C@H]2[C@H](O)[C@@H](O)[C@@H](O[C@H]3[C@H](O)[C@@H](O)C(O)O[C@@H]3CO)O[C@@H]2CO)[C@H](O)[C@@H](O)[C@@H]1N[C@H]1C=C(CO)[C@@H](O)[C@H](O)[C@H]1O` (stereo partly shown) [acarbose, reference compound], at α-Glucosidase [1], the inhibition at 2 µg/mL stood at 11.1%, the inhibition at 4 µg/mL was 25.3%, the inhibition at 6 µg/mL was determined as 37.9% and the inhibition at 8 µg/mL was determined as 52.4%. Also, the inhibition at 10 µg/mL at α-Glucosidase [1] was determined as 65.7%.
